# Measurements from paper PMC12040169 (PLOS Biology, 2025).
# Assay: in vitro
# Conditions: human, hela cells, % viability
row,Structure (SMILES),"viability at 28.5 h, 10 µM"
1,Cc1ccccc1-n1nnnc1C(c1ccccc1)N(C)Cc1cccc([N+](=O)[O-])c1 (stereo not drawn) [CBK262878],91%
2,N#Cc1ccc(CSc2ncccc2C(=O)O)cc1 [CBK287187],85.9%
3,CC(C)n1nccc1NC(=O)CCn1c(C(F)F)cc2cccnc21 [CBK284690],99.3%
4,Cn1ccnc1C1(O)CCN(C(=O)NCc2ccccc2)CC1 [CBK282276],94.9%
5,CC(=O)N(C)c1nc(-c2ccccc2C)ccc1C(=O)Nc1cc(C)nn1C [CBK106357],88.6%
6,O=C(Nc1nc2n(n1)C(c1ccc(F)cc1)CC(c1ccccc1)N2)c1cccnc1 (stereo not drawn) [CBK267953],88.9%
7,CN(CC(=O)NNC(=O)c1cccnc1)S(=O)(=O)c1cc(Cl)ccc1Cl [CBK267388],92.2%
8,O=c1[nH]c2cc(Cl)cc(Cl)c2o1 [CBK015711],90.6%
9,Cc1[nH]c(=O)[nH]c(=O)c1S(=O)(=O)Nc1ccc(S(N)(=O)=O)cc1 [CBK262123],91.7%
10,O=C(O)CCC(=O)N1N=C(c2c(-c3ccccc3)c3cc(Cl)ccc3[nH]c2=O)CC1c1ccccn1 (stereo not drawn) [CBK296106],97.3%
11,CC1(C)CC(O[Si](C)(C)OC2CC(C)(C)NC(C)(C)C2)CC(C)(C)N1 [CBK261942],99.3%
12,Cc1c(C)c2c(O)n(-c3ccccc3)nc2[nH]c1=O [CBK287891],89.3%
13,CN1CCCN(Cc2ccc([N+](=O)[O-])s2)CC1 [CBK261558],94%
14,CC(=O)NCCn1cc2c(n1)[C@H]1CN(C(=O)CC(C)(C)C)C[C@H]1CC2 [CBK284592],93.8%
15,COc1ccc(Cl)cc1S(=O)(=O)N1CCC(C(=O)O)CC1 [CBK269607],79.1%
16,Cc1ccc([N+](=O)[O-])c(OCCN2CCN(Cc3ccccc3)CC2)c1 [CBK268568G],99.2%
17,O=C(CCn1cnc2ccccc2c1=O)Nc1ccc(S(=O)(=O)N2CCOCC2)cc1 [CBK267645],98.9%
18,CC(C)Oc1cc(Br)cc(C(=O)N2CCC(C(=O)O)C2)c1 (stereo not drawn) [CBK304268C],92.6%
19,CN(C(=O)c1c[nH]nc1-c1ccc(CNC(=O)c2cccc(Cl)c2)cc1)c1ccccc1 [CBK285597],79.9%
20,CN1CCN(c2ccc(-c3cncc(NCCc4ccccn4)n3)cn2)CC1 [CBK037135],87.2%

row,Structure (SMILES),"viability at 28.5 h, 10 µM"
1,COc1ccc(/C=N/NC(=O)CCn2c3ccccc3c3ccccc32)cc1O [CBK262343],46%
2,Cc1[nH]ncc1CN1CCCC(c2cc3ccccc3cn2)C1 (stereo not drawn) [CBK285029],108%
3,O=C(CN(c1ccc(F)cc1)S(=O)(=O)c1ccccc1)Nc1ccc2c(c1)OCCO2 [CBK265215],94.8%
4,O=C(CCNCCc1c[nH]c(=O)[nH]c1=O)Nc1cccc(Cl)c1 [CBK306889],86.3%
5,CC(=O)N1CCN(C(C(=O)O)c2cn(Cc3ccccc3)c3ccc(C(=O)O)cc23)CC1 (stereo not drawn) [CBK286648],79.6%
6,C=CCn1c(COc2cccc(Cl)c2)nnc1SCC(=O)O [CBK269389],90.2%
7,c1ccc(Nc2nccc(C3CCCN(Cc4ccc5[nH]ccc5c4)C3)n2)nc1 (stereo not drawn) [CBK286093],85.3%
8,O=C(C(Cc1ccccc1)c1ccccc1)N1CCC2(CCN(CCCCOc3ccccc3)C2)C1 (stereo not drawn) [CBK160643],101%
9,CCOC(=O)N1CCC(NS(=O)(=O)/C=C/c2ccccc2)CC1 [CBK045458],107%
10,CCc1cc(O)n2nc(C)c(-c3cccs3)c2n1 [CBK283730],99.3%
11,Cn1nc(C(=O)NCC2(c3cccc(F)c3)CCCC2)ccc1=O [CBK281437],86.9%
12,CC(C)(C)C(=O)/N=c1/[nH]nc(-c2cccnc2)s1 [CBK288203],98.3%
13,CC(C)C(NS(=O)(=O)c1ccccc1)C(=O)Nc1ccccc1 (stereo not drawn) [CBK270001],87.8%
14,O=C(NCc1sccc1Cl)Nc1cccc(Cl)c1 [CBK057110],92.4%
15,Cc1ccccc1Nc1nc(CN2CCC3(CCCOC3)C2)cs1 (stereo not drawn) [CBK304255],95%
16,CSc1nsc(SCC(=O)N2CCN(C(c3ccccc3)c3ccccc3)CC2)n1 [CBK268071],89.2%
17,CCOc1ccc(C(O)Cn2c(=N)n(CCN3CCCCC3)c3ccccc32)cc1 (stereo not drawn) [CBK262913C],111%
18,CC(C)CCc1c(O)nc(SCCN(C)C)[nH]c1=O [CBK263382],95.3%
19,Cc1oc2ccc(O)cc2c1C(=O)NCCCN1CC(C)CC(C)C1 (stereo not drawn) [CBK282161],110%
20,O=C(O)c1ccc(/C=N/c2ccc(S(=O)(=O)c3ccc(/N=C/c4ccc(C(=O)O)cc4)cc3)cc2)cc1 [CBK262038],92.4%

row,Structure (SMILES),"viability at 28.5 h, 10 µM"
1,Cc1cccc(CN2CCC(N(C)Cc3nnc(C4CC4)n3C)C2)c1 (stereo not drawn) [CBK305165],88.5%
2,Cc1ccc(S(=O)(=O)Nc2nnc(SCC(=O)Nc3ccc4c(c3)OCO4)s2)cc1 [CBK026675],100%
3,CNC(=O)c1sc2ccccc2c1C1CCN(Cc2cnc(-c3ccc(C)cc3)nc2)C1 (stereo not drawn) [CBK285883],108%
4,CC12CN(Cc3ccccc3)CC1NC(=O)c1ccccc1C2N (stereo not drawn) [CBK282850],99.5%
5,CCN(CCO)c1ccc(Nc2cc(-c3cc4ccccc4o3)ncn2)cc1 [CBK090999],94.8%
6,O=C(NCC1CCCO1)C1CCCN(C(=O)c2cc(-c3ccccn3)[nH]n2)C1 (stereo not drawn) [CBK210893],91.7%
7,COC(=O)c1c(NC(=S)Nc2ccn(C)n2)sc2c1CCCCC2 [CBK266888],106%
8,O=C1CCCC[C@]2(CN(Cc3ccccc3)C[C@H]2c2cccnc2)N1 [CBK283342],106%
9,CC(O)CNc1nccnc1-c1cccc(O)c1 (stereo not drawn) [CBK037055],97.6%
10,Cc1nnc2sc(-c3ccc(CNC(=S)NC(=O)c4ccccc4[N+](=O)[O-])cc3)nn12 [CBK268588],84.6%
11,Cc1nc(C)n(CC2CCCN2Cc2cn3ccccc3c2C#N)n1 (stereo not drawn) [CBK304006],91%
12,CC1=CC[C@H]2COC(CN3CCOC3C(C)C)[C@@H]1C2 (stereo partly drawn) [CBK019189],122%
13,O=C(NC1CC1)[C@@H]1C=CCN1C(=O)Nc1ccccc1C(F)(F)F [CBK284276],98.1%
14,CC(=O)Nc1ccccc1NC(=O)COc1ccc(Br)cc1C [CBK265072],103%
15,CCC(C(=O)NCC1CCCN(C(C)C)C1)n1cnc2ccccc21 (stereo not drawn) [CBK282706],88.6%
16,COc1cc(NC(=O)C2CCCN2)ccc1-n1cccc1 (stereo not drawn) [CBK282500],85.4%
17,O=S(=O)(Nc1cccnc1)N1CCOCC1 [CBK269362],97.9%
18,Cn1cnc2cc(NC(=O)NCCN3CCCC(CO)C3)ccc21 (stereo not drawn) [CBK307582],107%
19,CS(=O)(=O)Nc1nc2ccc(S(C)(=O)=O)cc2s1 [CBK092166],100%
20,O=C(O)CCSc1nc2ccccc2n1-c1ccccc1 [CBK264215],100%

# Same assay, conditions: human, hela cells, % viability, bulk resorufin, single well
row,Structure (SMILES),"viability at 28.5 h, 10 µM"
1,O=C1NC(=S)NC(=O)C1=Cc1ccc(-c2ccc([N+](=O)[O-])cc2Cl)o1 [CBK261820],89.2%
2,O=C(Cn1cc(C(=O)c2ccco2)c2ccccc21)NCCc1c[nH]c2ccccc12 [CBK267509],97.9%
3,O=[N+]([O-])c1ccc(OC/C=C2\Oc3ccc([N+](=O)[O-])cc3C2N2CCOCC2)cc1 (stereo not drawn) [CBK262743],91.8%
